{
  "source": "patent US20240197236A1",
  "about": "“ELECTRO-ANATOMIC CARDIAC REPOLARIZATION MAPPING” (University Health Network, priority 2022, published 2024)",
  "test_system": "rabbit heart",
  "assay": "Rabbit heart Langendorff, simultaneous optical mapping and epicardial electrode-grid mapping of repolarization duration",
  "conditions": "after 20 uM addition of pinacidil to the perfusate",
  "method": "A study was performed to adapt a rabbit heart Langendorff optical mapping model^42 to add the recording of electrical EGMs to a commercially-available electrode array lab (Advisor […] catheter, Abbott Laboratories), after its use in the clinical laboratory for animal use. This involved using a UHN research mapping system in which unipolar EGMs from a 16-electrode grid were used to record cardiac signals with a proprietary mapping system (described previously as UHN Cartesian Mapping System^43) at a sampling rate of 1 kHz. This electrode array was chosen as spacing between the splines allowed recording of the fluorescence from the voltage-sensitive dye RH237. Fluorescence was recorded with a high-speed CMOS camera (Ultima-L, SciMedia, Costa Mesa, CA) at a rate of 500 frames/s. […] A derivative of the vectorcardiogram was obtained by projecting the repolarization loop along its maximum axis where the projection may be called a loop optimized rEGM (i.e., which is a type of repolarization-optimized EGM that in this case is determined using the loop method described with respect to FIG. 5C). A measurement of repolarization duration, called APD^v, was measured from the onset of QRS to baseline return of the loop rEGM. It was hypothesized that rEGM provides vector-derived integrated action potential duration (APD^v) that correlates with local repolarization assessed by optical mapping. […]",
  "data": [
    {"compound": "CC(N/C(=N\\C#N)Nc1ccncc1)C(C)(C)C", "note": "(centres unmarked) [Pinacidil, pinacidil]", "values": [
      {"measurement": "APD (optical APD90 from fluorescence)", "setting": "baseline APD90 151 ms", "value": 89, "unit": "ms"},
      {"measurement": "ARI (repolarization duration from loop rEGM)", "setting": "baseline APD^v average 142 ms", "value": 68, "unit": "ms"}
    ]}
  ]
}
